Experimental data taken from US5681604A, “Stain-inhibiting agent for dyes with affinity for protonatable nitrogen, compositions containing same and uses thereof” (priority 1993, dated 1997).

Columns and labels:
[1] = Stain inhibition: 66 nylon yarn immersed in F, D & C Red 40 / citric acid staining solution
Procedure: 3. […] A second yarn sample, Sample 2B, was immersed in staining/stain-inhibitor solution, Solution B, also for one minute. Both samples were then dried for 24 hours.
2. […] Thus, Solution 3B was prepared by adding 100 ppm of the ECG to Solution 3A.

[2] = commercially-available tannic acid from natural sources; cited from earlier work
[3] = Stain inhibition: 66 nylon skein (yarn) soaked in cherry KOOL-AID solution; details: for AATCC Staining Scale Rating: 1 min soak, dried 24 h; for CIE L / CIE a / CIE b: Minolta Chromameter
Procedure: (§1) Each solution was prepared by mixing 1 gram of the KOOL-AID® powder with enough water to make 450 to 500 cm^3 of solution.
(§2) Solution 1A: prepared as set forth above, no sugar added.
(§3) Solution 1B: Solution 1A+50 parts per million (ppm) tannic acid (certified, Fisher Scientific Co.).
(§4) Solution 1C: Solution 1A+200 ppm tannic acid (same tannic acid as in Solution 1B, hereafter "TA").
(§5) After the solutions were prepared, four 1 in^2 (6.45 cm^2) samples (Carpet Samples 1A, 1B, 1C, and Control) were cut from twisted, heat-set 66 nylon carpet, mock-acid dyed, and four 1-gram samples of 66 nylon skein (Test Fabrics, Middlesex, N.J.) were obtained (Yarn Samples 1A, 1B, 1C, and Control). Carpet Samples 1A, 1B, and 1C were soaked in 50 ml. of Solutions 1A, 1B, and 1C, respectively, for 1 minute, and allowed to dry for 24 hours. The Carpet Control Sample was not exposed to any of the solutions. The same procedure was followed with Yarn Samples 1A, 1B, 1C, and Control. (The carpet and skeins had been scoured in 0.1% non-ionic detergent to remove surface grease and finish.)
(§6) All samples were rinsed thoroughly in distilled water, and allowed to dry.
(§7) The amount of staining on each sample was evaluated by comparison with the AATCC Staining Scale (AATCC Test Method, 175-1991), and by the CIE L, a, b values obtained from the Minolta Chromameter.

Titration with NaOH = type: physicochemical
mice = details: oral, in mice; cited from earlier work
[4] = Stain inhibition: 66 nylon carpet soaked in cherry KOOL-AID solution; details: for AATCC Staining Scale Rating: 1 min soak, dried 24 h; for CIE L / CIE a / CIE b: Minolta Chromameter
Procedure: as §1, §2, §3, §4, §5, §6, §7

[5] = Stain-inhibiting activity (general statements)
[6] = 50 ppm TA in cherry KOOL-AID solution
[7] = 200 ppm TA in cherry KOOL-AID solution

SMILES: O=C(O[C@@H]1Cc2c(O)cc(O)cc2O[C@@H]1c1ccc(O)c(O)c1)c1cc(O)c(O)c(O)c1 [ECG, Epicatechin gallate]
- AATCC ([1]; 100 ppm ECG in Red 40 staining solution pH 2.8, 1 min): 7
- CIE L ([1]; 100 ppm ECG, Chromameter): 81
- CIE a ([1]; 100 ppm ECG, Chromameter): 4
- CIE b ([1]; 100 ppm ECG, Chromameter): 2

SMILES: O=C(OC[C@H]1O[C@@H](OC(=O)c2cc(O)c(O)c(OC(=O)c3cc(O)c(O)c(O)c3)c2)[C@H](OC(=O)c2cc(O)c(O)c(OC(=O)c3cc(O)c(O)c(O)c3)c2)[C@@H](OC(=O)c2cc(O)c(O)c(OC(=O)c3cc(O)c(O)c(O)c3)c2)[C@@H]1OC(=O)c1cc(O)c(O)c(OC(=O)c2cc(O)c(O)c(O)c2)c1)c1cc(O)c(O)c(OC(=O)c2cc(O)c(O)c(O)c2)c1 [TA, tannic acid]
- water solubility [2]: water soluble
- AATCC Staining Scale Rating [3, 6]: 7
- CIE L ([3]; 50 ppm TA): 81
- CIE a ([3]; 50 ppm TA): 12
- CIE b ([3]; 50 ppm TA): 4
- AATCC Staining Scale Rating [3, 7]: 9
- CIE L ([3]; 200 ppm TA): 83
- CIE a ([3]; 200 ppm TA): 8
- CIE b ([3]; 200 ppm TA): 4
- inflection point pH when titrated with NaOH (Titration with NaOH): about 4.5
- LD50 (mice): 6000 mg/kg
- AATCC Staining Scale Rating [4, 6]: 6
- CIE L ([4]; 50 ppm TA): 78
- CIE a ([4]; 50 ppm TA): 9
- CIE b ([4]; 50 ppm TA): 3
- AATCC Staining Scale Rating [4, 7]: 10
- CIE L ([4]; 200 ppm TA): 83
- CIE a ([4]; 200 ppm TA): 0.8
- CIE b ([4]; 200 ppm TA): 2

SMILES: Oc1cccc(O)c1 [resorcinol]
- stain-inhibiting activity [5]: do not appear to exhibit stain-inhibiting activity

SMILES: Oc1cccc(O)c1O [pyrogallol]
- stain-inhibiting activity [5]: do not appear to exhibit stain-inhibiting activity
